{
  "source": "patent US20060111289A1",
  "about": "“Compositions and methods of using Alpha-fetoprotein growth inhibitory peptides” (Serometrix, LLC,, priority 2004, published 2006)",
  "key": {"[1]": {"tested_on": "60 cancer cell lines", "experiment": "NCI screen of 60 cancer cell lines, 2 day versus 6-day sulforhodamine assay", "type": "cell-based, human", "details": "nine different cancer cell types", "source_text": "These findings detailed the in vitro results of the GIP challenges against 60 different cell culture lines representing a variety of human cancers."}, "[2]": {"tested_on": "human kidney tumor cell line"}, "[3]": {"tested_on": "HCC-299", "details": "HCC-299 (colon, AC); 2-Day Assay; Conc. 10^−1 Molar"}, "[4]": {"tested_on": "Colo-205", "details": "Colo-205 (colon, AC)"}, "[5]": {"tested_on": "OVCAR-3", "details": "OVCAR-3 (ovary, AC); 2-Day Assay; Conc. 10^−2 Molar"}, "[6]": {"tested_on": "IGROV1", "details": "IGROV1 (ovary, AC); 2-Day Assay; Conc. 10^−1 Molar"}, "[7]": {"tested_on": "MCF-7", "details": "MCF-7 (breast, AC); 2-Day Assay; Conc. 10^−2 Molar"}, "[8]": {"tested_on": "MDA-MB-231", "details": "MDA-MB-231 (breast, AC); 6-Day Assay; Conc. 10^−7 only Molar"}, "[9]": {"tested_on": "MDA-MB-435", "details": "MDA-MB-435 (breast, AC); 2-Day Assay; Conc. 10^−1 Molar"}, "[10]": {"tested_on": "T-47D", "details": "T-47D (breast, AC)"}, "[11]": {"tested_on": "PC-3", "details": "PC-3 (prostate, AC); 2-Day Assay; Conc. 10^−1 Molar"}, "[12]": {"tested_on": "DU-145", "details": "DU-145 (prostate, AC); 2-Day Assay; Conc. 10^−1 Molar"}, "[13]": {"tested_on": "NCI-H226", "details": "NCI-H226 (non-small cell lung, CA)"}, "[14]": {"tested_on": "NCI-H460", "details": "NCI-H460 (non-small cell lung, CA); 2-Day Assay; Conc. 10^−2 Molar"}, "[15]": {"tested_on": "SK-MeL-5", "details": "SK-MeL-5 (melanoma, squamous)"}, "[16]": {"tested_on": "UACC-257", "details": "UACC-257 (melanoma, squamous); 2-Day Assay; Conc. 10^−2 Molar"}, "[17]": {"tested_on": "SF-539", "details": "SF-539 (central nervous system, CA)"}, "[18]": {"tested_on": "U-251", "details": "U-251 (central nervous system, CA); 2-Day Assay; Conc. 10^−2 Molar"}, "[19]": {"tested_on": "RXF-393", "details": "RXF-393 (kidney, renal CA); 2-Day Assay; Conc. 10^−1 Molar"}, "[20]": {"tested_on": "ACHN", "details": "ACHN (kidney, renal CA); 2-Day Assay; Conc. 10^−2 Molar"}, "[21]": {"tested_on": "K-562", "details": "K-562 (white blood cell, leukemia); 6-Day Assay; Conc. 10^−7 Molar"}, "[22]": {"tested_on": "Molt-4", "details": "Molt-4 (white blood cell, leukemia); 2-Day Assay; Conc. 10^−2 Molar"}, "[23]": {"tested_on": "CCRF-CEM", "details": "CCRF-CEM (white blood cell, leukemia)"}},
  "note": "Like-named read-outs stand apart in the source and are kept apart here. Where a SMILES comes first, the peptide text is derived from it.",
  "data": [
    {"compound": "CC[C@H](C)[C@H](NC(=O)[C@H](CS)NC(=O)[C@H](CC(C)C)NC(=O)[C@H](Cc1c[nH]cn1)NC(=O)CNC(=O)[C@@H](NC(=O)[C@@H](NC(=O)[C@@H](NC(=O)[C@H](CC(=O)O)NC(=O)[C@H](C)NC(=O)[C@H](C)NC(=O)CNC(=O)[C@H](CCC(=O)O)NC(=O)CNC(=O)[C@H](CS)NC(=O)[C@H](C)NC(=O)[C@H](CC(C)C)NC(=O)[C@H](CC(C)C)NC(=O)[C@H](CCCCN)NC(=O)[C@H](CC(=O)O)NC(=O)[C@H](CCC(=O)O)NC(=O)[C@H](CO)NC(=O)[C@@H](N)CC(C)C)[C@@H](C)CC)[C@@H](C)CC)[C@@H](C)CC)C(=O)N[C@@H](CCCNC(=N)N)C(=O)N[C@@H](Cc1c[nH]cn1)C(=O)N[C@@H](CCC(=O)O)C(=O)N[C@@H](CCSC)C(=O)N[C@H](C(=O)N1CCC[C@H]1C(=O)N[C@H](C(=O)N[C@@H](CC(N)=O)C(=O)N1CCC[C@H]1C(=O)NCC(=O)N[C@H](C(=O)O)C(C)C)C(C)C)[C@@H](C)O", "note": "[P149] (H-LSEDKLLACGEGAADIIIGHLCIRHEMTPVNPGV-OH)", "values": [
      {"measurement": "Number of the 60 cancer cell lines against which the peptide appeared cytostatic (not cytotoxic)", "setting": "[1]", "result": 38},
      {"measurement": "% Inhibition Of Activity: Kidney tumor growth", "setting": "[2]", "result": 70, "unit": "%"},
      {"measurement": "% Growth Inhibition", "setting": "[3]", "result": 20, "unit": "%"},
      {"measurement": "% Growth Inhibition", "setting": "[4]; 2-Day Assay, Conc. 10^−2 Molar", "result": 10, "unit": "%"},
      {"measurement": "% Growth Inhibition", "setting": "[4]; 6-Day Assay, Conc. 10^−5 Molar", "result": 10, "unit": "%"},
      {"measurement": "% Growth Inhibition", "setting": "[5]", "result": 20, "unit": "%"},
      {"measurement": "% Growth Inhibition", "setting": "[6]", "result": 10, "unit": "%"},
      {"measurement": "% Growth Inhibition", "setting": "[7]", "result": 20, "unit": "%"},
      {"measurement": "% Growth Inhibition", "setting": "[8]", "result": 80, "unit": "%"},
      {"measurement": "% Growth Inhibition", "setting": "[9]", "result": 20, "unit": "%"},
      {"measurement": "% Growth Inhibition", "setting": "[10]; 2-Day Assay, Conc. 10^−2 Molar", "result": 10, "unit": "%"},
      {"measurement": "% Growth Inhibition", "setting": "[10]; 6-Day Assay, Conc. 10^−5 Molar", "result": 25, "unit": "%"},
      {"measurement": "% Growth Inhibition", "setting": "[11]", "result": 5, "unit": "%"},
      {"measurement": "% Growth Inhibition", "setting": "[12]", "result": 10, "unit": "%"},
      {"measurement": "% Growth Inhibition", "setting": "[13]; 2-Day Assay, Conc. 10^−2 Molar", "result": 5, "unit": "%"},
      {"measurement": "% Growth Inhibition", "setting": "[13]; 6-Day Assay, Conc. 10^−5 Molar", "result": "5-10%"},
      {"measurement": "% Growth Inhibition", "setting": "[14]", "result": 30, "unit": "%"},
      {"measurement": "% Growth Inhibition", "setting": "[15]; 2-Day Assay, Conc. 10^−2 Molar", "result": 5, "unit": "%"},
      {"measurement": "% Growth Inhibition", "setting": "[15]; 6-Day Assay, Conc. 10^−5 Molar", "result": 10, "unit": "%"},
      {"measurement": "% Growth Inhibition", "setting": "[16]", "result": 20, "unit": "%"},
      {"measurement": "% Growth Inhibition", "setting": "[17]; 2-Day Assay, Conc. 10^−2 Molar", "result": 10, "unit": "%"},
      {"measurement": "% Growth Inhibition", "setting": "[17]; 6-Day Assay, Conc. 10^−5 Molar", "result": "15-20%"},
      {"measurement": "% Growth Inhibition", "setting": "[18]", "result": 15, "unit": "%"},
      {"measurement": "% Growth Inhibition", "setting": "[19]", "result": 30, "unit": "%"},
      {"measurement": "% Growth Inhibition", "setting": "[20]", "result": 20, "unit": "%"},
      {"measurement": "% Growth Inhibition", "setting": "[21]", "result": 45, "unit": "%"},
      {"measurement": "% Growth Inhibition", "setting": "[22]", "result": 5, "unit": "%"},
      {"measurement": "% Growth Inhibition", "setting": "[23]; 2-Day Assay, Conc. 10^−2 Molar", "result": 5, "unit": "%"},
      {"measurement": "% Growth Inhibition", "setting": "[23]; 6-Day Assay, Conc. 10^−5 Molar", "result": "5-10%"}
    ]}
  ]
}
